For one assay, the target named is T1, Helios (Homo sapiens, UniProt Q96SW2+Q9UKS7).
T1 construct: fluorescently labelled antibodies against Helios and Ikaros; endogenous in cells; host or cells: Jurkat cells
As to the kind of experiment: Helios Cellular Degradation Assay (flow cytometry, Helios-PE antibody staining, 72 h). Format: cell-based. Conditions: for Dmax: Jurkat, read-out: Helios Dmax. In a few lines: (§1)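 Jurkat cells (80,000/well, RPMI+10% FBS) were exposed to compound for 72 h at 37 °C, then fixed, permeabilized and co-stained for 1 h with Ikaros-Alexa488 and Helios-PE antibodies. Intracellular protein levels were read by flow cytometry.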

In the next assay the target is T2, Ikaros (Homo sapiens, UniProt Q13422).
T2 construct: fluorescently labelled antibodies against Helios and Ikaros; endogenous in cells; host or cells: Jurkat cells
T2 sequence (Q96SW2 whole entry partner): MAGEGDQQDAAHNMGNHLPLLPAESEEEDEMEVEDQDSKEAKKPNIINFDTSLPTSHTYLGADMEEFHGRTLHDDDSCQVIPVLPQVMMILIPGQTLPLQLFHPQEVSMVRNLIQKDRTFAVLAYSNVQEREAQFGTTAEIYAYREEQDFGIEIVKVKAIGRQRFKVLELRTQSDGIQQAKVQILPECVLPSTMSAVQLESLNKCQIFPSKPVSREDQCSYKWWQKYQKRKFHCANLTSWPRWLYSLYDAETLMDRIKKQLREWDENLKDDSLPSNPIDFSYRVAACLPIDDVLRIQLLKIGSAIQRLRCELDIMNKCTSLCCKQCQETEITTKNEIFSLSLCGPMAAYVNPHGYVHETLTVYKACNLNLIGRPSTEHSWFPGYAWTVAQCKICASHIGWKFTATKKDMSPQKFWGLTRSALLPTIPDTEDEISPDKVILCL
T2 sequence (Q16531 whole entry partner): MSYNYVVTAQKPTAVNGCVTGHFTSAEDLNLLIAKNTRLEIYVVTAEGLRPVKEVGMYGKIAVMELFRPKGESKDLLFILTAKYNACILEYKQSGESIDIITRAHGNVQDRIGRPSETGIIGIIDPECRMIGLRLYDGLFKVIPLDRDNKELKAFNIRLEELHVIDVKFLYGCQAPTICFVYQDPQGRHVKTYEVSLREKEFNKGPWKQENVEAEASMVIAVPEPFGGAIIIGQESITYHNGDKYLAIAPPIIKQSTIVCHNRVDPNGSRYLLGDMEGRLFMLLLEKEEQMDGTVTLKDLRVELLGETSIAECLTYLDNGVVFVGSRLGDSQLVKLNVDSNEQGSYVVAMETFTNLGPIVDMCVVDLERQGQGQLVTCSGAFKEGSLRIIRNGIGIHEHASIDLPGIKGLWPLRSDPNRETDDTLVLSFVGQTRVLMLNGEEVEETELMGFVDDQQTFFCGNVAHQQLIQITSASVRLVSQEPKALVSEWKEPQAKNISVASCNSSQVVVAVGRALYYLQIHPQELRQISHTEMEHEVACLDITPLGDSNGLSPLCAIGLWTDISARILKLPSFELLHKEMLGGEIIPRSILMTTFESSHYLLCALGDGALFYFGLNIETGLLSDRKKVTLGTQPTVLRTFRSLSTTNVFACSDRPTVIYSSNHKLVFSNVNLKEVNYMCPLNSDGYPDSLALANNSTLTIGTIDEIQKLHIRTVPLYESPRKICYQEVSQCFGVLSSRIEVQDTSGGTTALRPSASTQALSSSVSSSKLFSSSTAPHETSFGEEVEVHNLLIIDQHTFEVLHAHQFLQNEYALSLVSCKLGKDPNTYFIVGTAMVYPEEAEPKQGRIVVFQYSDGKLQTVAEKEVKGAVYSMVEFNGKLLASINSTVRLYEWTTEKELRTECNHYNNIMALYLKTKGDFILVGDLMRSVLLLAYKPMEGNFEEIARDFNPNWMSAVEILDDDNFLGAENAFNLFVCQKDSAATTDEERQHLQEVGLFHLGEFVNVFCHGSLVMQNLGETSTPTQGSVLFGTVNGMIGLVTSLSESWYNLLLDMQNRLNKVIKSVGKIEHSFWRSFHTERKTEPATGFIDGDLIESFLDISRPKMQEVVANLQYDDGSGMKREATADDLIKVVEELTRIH
T2 sequence (Q13422 whole entry): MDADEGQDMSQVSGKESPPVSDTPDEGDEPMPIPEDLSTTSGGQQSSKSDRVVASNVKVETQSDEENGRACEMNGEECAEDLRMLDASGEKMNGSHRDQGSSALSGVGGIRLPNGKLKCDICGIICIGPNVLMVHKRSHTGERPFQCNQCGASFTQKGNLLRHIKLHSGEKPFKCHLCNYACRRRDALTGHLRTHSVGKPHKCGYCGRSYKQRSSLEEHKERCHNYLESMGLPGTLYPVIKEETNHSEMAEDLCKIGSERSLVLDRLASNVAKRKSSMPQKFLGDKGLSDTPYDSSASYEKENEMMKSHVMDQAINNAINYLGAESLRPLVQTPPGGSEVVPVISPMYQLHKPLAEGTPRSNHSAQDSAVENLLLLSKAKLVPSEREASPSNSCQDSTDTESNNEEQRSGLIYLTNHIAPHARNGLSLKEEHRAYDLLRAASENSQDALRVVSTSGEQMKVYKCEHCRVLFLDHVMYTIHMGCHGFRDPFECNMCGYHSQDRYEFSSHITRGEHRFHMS
As to the kind of experiment: Helios Cellular Degradation Assay, Ikaros readout (flow cytometry, Ikaros-Alexa488 antibody staining, 72 h). Format: cell-based. Conditions: Jurkat cells, 72 h incubation, flow cytometry; for Dmax: Jurkat, read-out: Ikaros Dmax. In a few lines:
as §1

Setting [1] is: Jurkat cells, 72 h incubation, flow cytometry.

In general, DC50 refers to the concentration giving 50% degradation. Lower therefore signals a more potent degrader. By Dmax is commonly meant the greatest extent of degradation seen.

Like-named read-outs stand apart in the source and are kept apart here.

T1 sequence (Q9UKS7 whole entry): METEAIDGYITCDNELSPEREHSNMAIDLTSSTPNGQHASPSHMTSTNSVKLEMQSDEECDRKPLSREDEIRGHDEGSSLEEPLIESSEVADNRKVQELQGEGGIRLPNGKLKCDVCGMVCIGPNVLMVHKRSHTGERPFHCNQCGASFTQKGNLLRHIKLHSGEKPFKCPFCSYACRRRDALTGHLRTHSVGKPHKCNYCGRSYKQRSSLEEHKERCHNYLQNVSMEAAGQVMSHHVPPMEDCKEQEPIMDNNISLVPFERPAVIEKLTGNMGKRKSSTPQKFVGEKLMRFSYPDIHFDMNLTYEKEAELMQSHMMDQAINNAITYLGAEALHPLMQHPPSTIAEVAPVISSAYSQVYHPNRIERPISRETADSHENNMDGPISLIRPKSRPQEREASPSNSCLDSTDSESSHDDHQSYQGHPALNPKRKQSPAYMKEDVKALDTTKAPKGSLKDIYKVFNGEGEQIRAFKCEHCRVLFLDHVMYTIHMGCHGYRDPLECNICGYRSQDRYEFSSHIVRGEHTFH
T1 sequence (Q96SW2 whole entry): as the sequence (Q96SW2 whole entry partner) above
T1 sequence (Q16531 whole entry partner): as the sequence (Q16531 whole entry partner) above

Consider `O=C1CCC(N2Cc3cc(-c4cc(CNCCc5nc6ccccc6s5)ccn4)ccc3C2=O)C(=O)N1` (centres unmarked) [Example 106, 3-(5-(4-(((2-(benzo[d]thiazol-2-yl)ethyl)amino)methyl)pyridin-2-yl)-1-oxoisoindolin-2-yl)piperidine-2,6-dione], for which, at Helios (setting [1]), the DC50 turned out to be 72 nM and the Dmax is 79%. At Ikaros, the DC50 is over 10000 nM and the Dmax worked out at 12%.
In the same order, the values of `CN(C)C1CCC(NCc2ccnc(-c3ccc4c(c3)CN(C3CCC(=O)NC3=O)C4=O)c2)CC1` (centres unmarked) [Example 107, 3-(5-(4-(((4-(dimethylamino)cyclohexyl)amino)methyl)pyridin-2-yl)-1-oxoisoindolin-2-yl) piperidine-2,6-dione] are 494 nM, 80%, over 10000 nM and 15%.
Regarding `O=C1CCC(N2Cc3cc(-c4cc(CNC5CCC5)ccn4)ccc3C2=O)C(=O)N1` (centres unmarked) [Example 108, 3-(5-(4-((cyclobutylamino)methyl)pyridin-2-yl)-1-oxoisoindolin-2-yl)piperidine-2,6-dione], on Helios (setting [1]), the DC50 came to 45 nM and the Dmax stood at 84%. On Ikaros, the DC50 was over 10000 nM and the Dmax was found to be 15%.
In the same order, the values of `O=C1CCC(N2Cc3cc(-c4cc(CNC5CC5)ccn4)ccc3C2=O)C(=O)N1` (centres unmarked) [Example 109, 3-(5-(4-((cyclopropylamino)methyl)pyridin-2-yl)-1-oxoisoindolin-2-yl)piperidine-2,6-dione] are 48 nM, 75%, over 10000 nM and 15%.
In the same order, the values of `O=C1CCC(N2Cc3cc(-c4cc(CNCc5csc(-c6ccccc6)n5)ccn4)ccc3C2=O)C(=O)N1` (centres unmarked) [Example 110, 3-(1-oxo-5-(4-((((2-phenylthiazol-4-yl)methyl)amino)methyl)pyridin-2-yl)isoindolin-2-yl)piperidine-2,6-dione] are 48 nM, 71%, over 10000 nM and 7%.
For `O=C1CCC(N2Cc3cc(-c4cc(CN[C@@H]5C[C@H]5c5ccccc5)ccn4)ccc3C2=O)C(=O)N1` (stereo partly drawn) [Example 111, 3-(1-oxo-5-(4-((((1R,2S)-2-phenylcyclopropyl)amino)methyl)pyridin-2-yl)isoindolin-2-yl)piperidine-2,6-dione], in that order: 137 nM, 75%, over 10000 nM and 10%.
Regarding `COC(=O)CCNCc1ccnc(-c2ccc3c(c2)CN(C2CCC(=O)NC2=O)C3=O)c1` (centres unmarked) [Example 112, methyl 3-(((2-(2-(2,6-dioxopiperidin-3-yl)-1-oxoisoindolin-5-yl)pyridin-4-yl)methyl)amino)propanoate], the results for the DC50 at Helios (setting [1]) and on Ikaros were 921 nM and over 10000 nM, respectively. For the same molecule, the results for the Dmax on Helios (setting [1]) and on Ikaros were 74% and 2%, respectively.
For `O=C1CCC(N2Cc3cc(-c4cc(CNCCCn5ccnc5)ccn4)ccc3C2=O)C(=O)N1` (centres unmarked) [Example 113, 3-(5-(4-(((3-(1H-imidazol-1-yl)propyl)amino)methyl)pyridin-2-yl)-1-oxoisoindolin-2-yl)piperidine-2,6-dione], in that order: 287 nM, over 10000 nM, 81% and 8%.
For `O=C1CCC(N2Cc3cc(-c4cc(CNCCCN5CCOCC5)ccn4)ccc3C2=O)C(=O)N1` (centres unmarked) [Example 114, 3-(5-(4-(((3-morpholinopropyl)amino)methyl)pyridin-2-yl)-1-oxoisoindolin-2-yl)piperidine-2,6-dione], in that order: 63 nM, over 10000 nM, 83% and 2%.
Regarding `O=C1CCC(N2Cc3cc(-c4cc(CNCCCN5CCCC5=O)ccn4)ccc3C2=O)C(=O)N1` (centres unmarked) [Example 115, 3-(1-oxo-5-(4-(((3-(2-oxopyrrolidin-1-yl)propyl)amino)methyl)pyridin-2-yl)isoindolin-2-yl)piperidine-2,6-dione], on Helios (setting [1]), it took 528 nM to reach half-maximal degradation (DC50) and the Dmax was determined as 78%. Besides, on Ikaros, the DC50 was over 10000 nM and the maximal degradation (Dmax) was 6%.
For `CCNCc1ccnc(-c2ccc3c(c2)CN(C2CCC(=O)NC2=O)C3=O)c1` (centres unmarked) [Example 116, 3-(5-(4-((ethylamino)methyl)pyridin-2-yl)-1-oxoisoindolin-2-yl)piperidine-2,6-dione], in that order: 25 nM, 88%, over 10000 nM and 12%.
For `CC1(C)CCCN1Cc1ccnc(-c2ccc3c(c2)CN(C2CCC(=O)NC2=O)C3=O)c1` (centres unmarked) [Example 117, 3-(5-(4-((2,2-dimethylpyrrolidin-1-yl)methyl)pyridin-2-yl)-1-oxoisoindolin-2-yl)piperidine-2,6-dione], in that order: 53 nM, 77%, over 10000 nM and 3%.
In the same order, the values of `CC1(C)CCN(Cc2ccnc(-c3ccc4c(c3)CN(C3CCC(=O)NC3=O)C4=O)c2)C1` (centres unmarked) [Example 118, 3-(5-(4-((3,3-dimethylpyrrolidin-1-yl)methyl)pyridin-2-yl)-1-oxoisoindolin-2-yl)piperidine-2,6-dione] are 11 nM, 90%, over 10000 nM and 12%.
`CC1CCC(C)N1Cc1ccnc(-c2ccc3c(c2)CN(C2CCC(=O)NC2=O)C3=O)c1` (centres unmarked) [Example 119, 3-(5-(4-((2,5-dimethylpyrrolidin-1-yl)methyl)pyridin-2-yl)-1-oxoisoindolin-2-yl)piperidine-2,6-dione]: at Helios (setting [1]), half-maximal degradation (DC50) was put at 2360 nM and the Dmax came to 53%. Moreover, on Ikaros, the DC50 is over 10000 nM and the Dmax turned out to be 3%.
In the same order, the values of `C[C@@H]1CCC[C@H](C)N1Cc1ccnc(-c2ccc3c(c2)CN(C2CCC(=O)NC2=O)C3=O)c1` (stereo partly drawn) [Example 120, 3-(5-(4-(((2R,6S)-2,6-dimethylpiperidin-1-yl)methyl)pyridin-2-yl)-1-oxoisoindolin-2-yl)piperidine-2,6-dione] are 85 nM, 84%, over 10000 nM and 3%.
For `CC1(c2ccc(N)cc2)CCN(Cc2ccnc(-c3ccc4c(c3)CN(C3CCC(=O)NC3=O)C4=O)c2)CC1` (centres unmarked) [Example 121, 3-(5-(4-((4-(4-aminophenyl)-4-methylpiperidin-1-yl)methyl)pyridin-2-yl)-1-oxoisoindolin-2-yl)piperidine-2,6-dione], the DC50 at Helios (setting [1]) is 24 nM; at Ikaros, over 10000 nM. Moreover, the values for the Dmax on Helios and at Ikaros were 77% and 19%, respectively.
As for `C[C@@H](NCc1ccnc(-c2ccc3c(c2)CN(C2CCC(=O)NC2=O)C3=O)c1)c1ccccc1` (stereo partly drawn) [Example 122, 3-(1-oxo-5-(4-((((R)-1-phenylethyl)amino)methyl)pyridin-2-yl)isoindolin-2-yl)piperidine-2,6-dione], on Helios (setting [1]), the DC50 was 14 nM and the Dmax is 88%. At Ikaros, the DC50 is over 10000 nM and the Dmax amounted to 4%.
In the same order, the values of `C[C@H](NCc1ccnc(-c2ccc3c(c2)CN(C2CCC(=O)NC2=O)C3=O)c1)c1ccccc1` (stereo partly drawn) [Example 123, 3-(1-oxo-5-(4-((((S)-1-phenylethyl)amino)methyl)pyridin-2-yl)isoindolin-2-yl) piperidine-2,6-dione] are 7 nM, 92%, over 10000 nM and 8%.
As for `O=C1CCC(N2Cc3cc(-c4cc(CNCC5(O)CCCCC5)ccn4)ccc3C2=O)C(=O)N1` (centres unmarked) [Example 124, 3-(5-(4-((((1-hydroxycyclohexyl)methyl)amino)methyl)pyridin-2-yl)-1-oxoisoindolin-2-yl)piperidine-2,6-dione], on Helios (setting [1]), the DC50 was determined as 58 nM and the Dmax was 95%. In addition, at Ikaros, the DC50 was over 10000 nM and the Dmax worked out at 11%.
Turning to `C[C@@H]1CCCN1Cc1ccnc(-c2ccc3c(c2)CN(C2CCC(=O)NC2=O)C3=O)c1` (stereo partly drawn) [Example 125, 3-(5-(4-(((R)-2-methylpyrrolidin-1-yl)methyl)pyridin-2-yl)-1-oxoisoindolin-2-yl) piperidine-2,6-dione], at Helios (setting [1]), half-maximal degradation (DC50) was put at 16 nM and the Dmax was 93%. On Ikaros, the DC50 is over 10000 nM and the Dmax turned out to be 8%.
For `CC1CC(NCc2ccnc(-c3ccc4c(c3)CN(C3CCC(=O)NC3=O)C4=O)c2)CCO1` (centres unmarked) [Example 126, 3-(5-(4-(((2-methyltetrahydro-2H-pyran-4-yl)amino)methyl)pyridin-2-yl)-1-oxoisoindolin-2-yl) piperidine-2,6-dione], in that order: 82 nM, 99%, over 10000 nM and 22%.
In the same order, the values of `O=C1CCC(N2Cc3cc(-c4cc(CN5CCC6(CC5)CC6)ccn4)ccc3C2=O)C(=O)N1` (centres unmarked) [Example 127, 3-(5-(4-((6-azaspiro[2.5]octan-6-yl)methyl)pyridin-2-yl)-1-oxoisoindolin-2-yl)piperidine-2,6-dione] are 35 nM, 84%, over 10000 nM and 6%.
For `O=C1CCC(N2Cc3cc(-c4cc(CNCCCCO)ccn4)ccc3C2=O)C(=O)N1` (centres unmarked) [Example 128, 3-(5-(4-(((4-hydroxybutyl)amino)methyl)pyridin-2-yl)-1-oxoisoindolin-2-yl)piperidine-2,6-dione], in that order: 93 nM, 94%, over 10000 nM and 28%.

Values taken from patent US11548870B2, “Compounds useful as inhibitors of helios protein” (Bristol-Myers Squibb Company, priority 2019, dated 2023).
